From patent US6897228B2, “Pyridoxine and pyridoxal analogues: new uses” (Medicure International Inc., priority 2000, dated 2005)

Experiments:
[1] = test system: male Sprague-Dawley rats, occlusion of the left coronary artery; test: In vivo infarct size and scar mass after coronary artery ligation; set-up: species or system rat; settings: after 21 days, 10 mg/kg daily by gastric tube; for infarct size (as a percentage of left ventricle size): untreated control about 45
Method: (§1) Food and water were supplied ad libitum. […] Hemodynamic and histological assessments were made.
After 21 days, once the hemodynamic data were obtained, the animals were sacrificed and both average dry scar mass to left ventricle mass (n=5/group) and infarct size (n=5/group) were measured. For infarct size measurement, hearts from the untreated and PLP/compound XXIIb-treated groups were fixed in formalin and embedded in paraffin. Six evenly spaced slices were cut across the left ventricle. […] sections were cut from each slice and mounted. Sections were stained with Trichrome to discriminate between fibrous scar and noninfarcted tissue. Using the free-drawing line tool in Scion Image v4.02b, infarct internal perimeter and left ventricle internal perimeter lengths were traced per oculum for each section. Noteworthy transmural scars were taken into account. Infarct size was then expressed as the average scar perimeter/ventricle perimeter ratio. Scar mass measurements were obtained by drying excised scar tissue and left ventricles at 50-60° C. for 72 hours.

[2] = test system: male Sprague-Dawley rats, occlusion of the left coronary artery; test: In vivo hypertrophy after coronary artery ligation; settings: rat model of Example 20
Method: as §1
Hypertrophy is a physiological condition of enlargement (increased mass) due to increased stress. Cardiac hypertrophy is assessed by calculating the heart to body mass ratio. Treatment with PLP or compound XXIIb results in a decrease in cardiac hypertrophy, in the rat model described in Example 20.

[3] = test system: platelets (platelet rich plasma); test: Inhibition of platelet aggregation (aggregometer, platelet rich plasma); format: cell-based; settings: for Extent of aggregation as a percentage amplitude, 1 μg/mL collagen: agonist 1 μg/mL collagen; for Extent of aggregation as a percentage amplitude, 4 μM ADP: agonist 4 μM ADP; for Extent of aggregation as a percentage amplitude, 5 μg/mL collagen: agonist 5 μg/mL collagen; for Extent of aggregation as a percentage amplitude, 12 μM TRAP: agonist 12 μM TRAP
Method: Platelet rich plasma (PRP) was obtained by drawing whole blood into sodium citrate tubes (3.2%) and centrifuging at 700 rpm for 10 minutes. Platelet poor plasma (PPP) was obtained by centrifuging the remainder of the sample ntil the platelets were removed (3200 rpm for 10 minutes). The PRP was adjusted to a count of 280×10^9/L using a mixture of PRP and PPP. The incubation mixture consisted of 200 μL of platelets and 25 μL of the appropriate compound (18 mM stock for a final concentration of 2 mM and 4.5 mM stock for a final concentration of 500 μM), rendering an approximate final platelet count in the incubation mixture of 250×10^9/L. After incubation (30 minutes at room temperature, the cuvettes were incubated for 3 minutes at 37° C., transferred to the mixing wells and after the baselines transmittances were measured in an aggregometer (Chrono-Log 4), 25 μL of agonist was added to give a final concentration of 4 μM ADP, 1 μg/mL collagen, 5 μg/mL collagen or 12 μM thrombin receptor activating peptide (TRAP). Final transmittances were then measured in the aggregometer (lower percent transmittance represents higher aggregation). […] Table 24-1 gives the results of the extent of aggregation for several compounds as percentage amplitude read directly from the aggregometer.

[4] = test system: male Sprague-Dawley rats, occlusion of the left coronary artery; test: In vivo hemodynamic changes after coronary artery ligation; settings: day 21 after coronary ligation; 10 mg/kg daily by gastric tube

| Compound | dry scar to left ventricle mass ratio [1] | infarct size (as a percentage of left ventricle size) [1] | cardiac hypertrophy (heart to body mass ratio) [2] | Extent of aggregation as a percentage amplitude, 1 μg/mL collagen ([3]; compound 500 μM) [%] | Extent of aggregation as a percentage amplitude, 4 μM ADP ([3]; compound 500 μM) [%] | Extent of aggregation as a percentage amplitude, 5 μg/mL collagen ([3]; compound 500 μM) [%] | Extent of aggregation as a percentage amplitude, 12 μM TRAP ([3]; compound 500 μM) [%] | Extent of aggregation as a percentage amplitude, 1 μg/mL collagen ([3]; compound 2 mM) [%] | Extent of aggregation as a percentage amplitude, 4 μM ADP ([3]; compound 2 mM) [%] | Extent of aggregation as a percentage amplitude, 5 μg/mL collagen ([3]; compound 2 mM) [%] | Extent of aggregation as a percentage amplitude, 12 μM TRAP ([3]; compound 2 mM) [%] | +dP/dt (rate of contraction) [4] | LVEDP in response to coronary occlusion [4] | −dP/dt (rate of relaxation) [4] |
| --- | --- | --- | --- | --- | --- | --- | --- | --- | --- | --- | --- | --- | --- | --- |
| Cc1ncc(COP(=O)(O)O)c(C=O)c1O [PLP, 3-hydroxy-2-methyl-5-[(phosphonooxy)methyl]-4-pyridine-carboxaldehyde, reference compound] | reduced | reduced | decrease | 89 | 69 | 87 | 90 | 84 | 16 | 89 | 91 | recoveries | reduced rises | recoveries |
| 4-methylimidazole pyridoxine [XXIIb] | reductions similar in magnitude to that seen in the PLP group | reduced | decrease | 79 | 59 | 82 | 91 | 32 | 46 | 77 | 84 | recoveries | reduced rises | recoveries |
| Cc1ncc(CNc2ccc(C(=N)N)cc2)c(CO)c1O [Compound XXXV] |  |  |  | 83 | 70 | 75 | 90 | 79 | 15 | 67 | 11 |  |  |  |
